Key:
Ku complex = target: T1, Ku complex (Homo sapiens, UniProt P12956+P13010); assay: Band-shift assay with Hep2 nuclear protein extracts; assay type: binding; conditions: for binding of Ku: Hep2 nuclear extract, band-shift; for retarded bands in band-shift assay: 10 nM 32P radio-labelled Dbait, 0-320 ng/μL Hep2 nuclear proteins, 30° C., 10 minutes
T1 construct: in the presence of nuclear protein extracts from Hep2 cells according to standard protocol; endogenous in cells; host or cells: Hep2 cells (nuclear protein extract)
Procedure: As the first step to dissect the mechanism of action of Dbait molecules, a series of band-shift assays were carried out with different ^32P radio-labelled Dbait molecules in the presence of nuclear protein extracts from Hep2 cells according to standard protocol. Typically, 10 nM ^32P radio-labelled Dbait molecules were incubated in the presence of various concentrations of nuclear proteins (0, 10, 20, 40, 80, 160, and 320 ng/μL) at 30° C. for 10 minutes in TBE buffer. Then the samples were loaded on a 5% acrylamide native gel. The electrophoresis was run at 95V for 2 hours at 4° C. The gel was dried and scanned by phosphorimager (Molecular Dynamics).
For 32-bp Dbait molecules, the intensity of the retarded band 1 increases and then decreases as the concentration of protein increases, while the intensity of the retarded band 2 increases as a function of the concentration of nuclear protein extracts.
It is likely that band 1 has one Ku70/80 complex bound to the 16 to 32-bp Dbait, whereas the band 2 has two Ku70/80 complexes bound to the 32-bp Dbait molecules. Control experiments performed with purified Ku proteins confirmed this interpretation.

[1] = tested on: DNA end-joining reaction in the nuclear extracts of Hep2 cells; assay: DNA end-joining assay in Hep2 nuclear extract; assay type: biochemical, human; conditions: for ligation of DNA fragments in cell-free assay: 2 h incubation with various Dbait
Procedure: DNA end-joining was monitored by incubating ^32P-labeled 605-bp linear DNA fragments with Hep2 nuclear extract in the presence of various Dbait molecules. Ligation products migrate as dimers, trimers or tetramers, starting 605 bp monomer.
Approximately 16% of the ^32P-labeled blunt linear duplex DNA molecules were ligated into dimers and trimers during the first 2 h of incubation. The amount of high molecular weight ligation products increased up to 30% of the total input DNA after 16 h. […] In most experiments, Dbait32H (SEQ ID NO: 1) was added simultaneously with the labeled DNA fragments to the nuclear extract.
Various Dbait molecules were tested for their effect on the cell-free assay by adding the molecules to nuclear extract and incubating for 2 h with the DNA fragments.
DNA-PK activity was monitored using the kit SignaTECT DNA-dependent Protein Kinase Assay System (Promega, Madison, USA). Increasing amounts of Hep2 nuclear extract (cleaned of endogenous DNA by DEAE-Sepharose filtration) were assayed in the presence of 250 nM Dbait. Extract, biotinylated peptide substrate and various amount of nuclear extract were incubated 5 minutes at 30° C. with (γ-^32P)ATP according to manufacturer indications. The biotinylated substrate was capture on streptavidine membrane, washed and counted in a scintillation counter. Percentage of phosphorylation is calculated by dividing the bound radioactivity by the total count of (γ-^32P)ATP per sample. Reactions (10 μl) were carried out in 60 mM KOAc, 100 μg/ml BSA, 0.5 mM Mg(Cl)2, 1 μl T4 DNA ligase 10× buffer (Promega, Madison, USA). Nuclear extract and Dbait were incubated 2 minutes before addition of ^32P-labeled DNA (10 ng). Samples were incubated various time at 37° C. before ligation being stopped by 20 mM EDTA and 1 mg/ml Proteinase K addition. Ligation products were analyzed by electrophoresis through 0.7% agarose gels followed by autoradiography and quantification by phosphorimaging.

[2] = tested on: p53 serine 15 phosphorylation in GMA32 cells; assay: Western blot of p53 serine 15 phosphorylation in GMA32 cells; assay type: cell-based, Chinese hamster; conditions: GMA32, Dbait with lipofectamine, no irradiation or mitotic inhibitor
Procedure: Further experiment was carried out in order to look for evidence of DNA damage signaling. The protein p53 is a well known major protein in mediating DNA damage signaling and in coordinating appropriate responses (DNA repair, apoptosis, etc.) by changing its phosphorylation status. In particular, the phosphorylation of serine 15 residue is involved in the interaction with MDM2 protein which acts as a feed back control Thus, the phosphorylation status of the serine 15 of p53 was assessed by Western blot.
For Western blot analysis, cells were lysed in Laemmli buffer. Equal amounts of lysates were resolved in 12% polyacrylamide gels. Proteins were transferred to nitrocellulose membranes, which were blocked with 5% nonfat milk (1 hour) before overnight incubation with anti-p53Ser15 antibody (9284, Cell Signaling) diluted 500 folds in TBST buffer (10 mM Tris-HCl pH7.5, 150 mM NaCl, 0.1% Tween 20) containing 5% nonfat milk. Blots were then incubated with horseradish peroxidase-conjugated goat anti-rabbit IgG secondary antibodies (P0448, Dako) diluted 1/5000 in TBST. Protein-antibody complexes were detected by enhanced chemiluminescence (RPN2106 ECL, Amersham).

[3] = tested on: radiation-enhanced illegitimate integration of a plasmid in Hela cells; assay: Inhibition of radiation-enhanced illegitimate integration of exogenous DNA; assay type: cell-based, human; conditions: for radiation-enhanced illegitimate integration of plasmid (puromycin resistance): 2 μg Dbait, fractionated 4×0.5 Gy irradiation
Procedure: Exponentially growing cells in six-well plates were harvested and incubated with […] of complete DMEM containing a mixture of Dbait molecules and Superfect reagent (Qiagen, Courtaboeuf, France) in a ratio of 10 μl Superfect per μg DNA. After 5 h at 37° C. under standard conditions, the cells were washed with PBS and complete DMEM was added. Where indicated, cells were exposed to irradiation either in one session (10 Gy) 5 h after the beginning of transfection or in four sessions of 0.5 Gy administered with a ^137Cs unit (1 Gy/min) 3, 4, 5 and 6 h after the beginning of transfection and allowed to grow for two weeks. When plasmid integration was measured, 2 μg of plasmid was added to Dbait transfection and puromycin (1.7 μg/ml) was added to the growth medium 48 h after transfection. Plasmid transfection efficiency was estimated by analyzing 10,000 cells for GFP expression on a FACScan flow cytometer (FACSalibur, Beckton-Dickinson, USA).
Ionizing radiation is known to improve illegitimate integration of exogenous DNA, a process termed radiation-enhanced integration. Hela cell culture was used for this assay. Cells were transfected during 8 hours by 2 μg of a linear plasmid carrying the gene coding for neomycin resistance, and three different ratio of DNA/superfect (1:2, 1:5, 1:10). During transfection time, the cells were exposed to different irradiation protocols: no irradiation, one single irradiation of 1 Gy and 2 Gy, as well as a 2 Gy irradiation delivered by fractionated doses of 0.5 Gy every 2 hours (4×0.5 Gy). The integration of the plasmid was monitored by selection of Neo^R cells growing in a medium containing 0.6 mg/ml of G418. […] When 2 μg of Dbait32H (SEQ ID NO: 1) molecules were added to the transfection mix, the radiation-enhanced integration was abolished (FIG. 2.3).
Wortmann (Wort) and NU7026 (NU) which are known inhibitors of PI3K (including DNA-PK) were used as control.

T1 sequence (P12956 whole entry): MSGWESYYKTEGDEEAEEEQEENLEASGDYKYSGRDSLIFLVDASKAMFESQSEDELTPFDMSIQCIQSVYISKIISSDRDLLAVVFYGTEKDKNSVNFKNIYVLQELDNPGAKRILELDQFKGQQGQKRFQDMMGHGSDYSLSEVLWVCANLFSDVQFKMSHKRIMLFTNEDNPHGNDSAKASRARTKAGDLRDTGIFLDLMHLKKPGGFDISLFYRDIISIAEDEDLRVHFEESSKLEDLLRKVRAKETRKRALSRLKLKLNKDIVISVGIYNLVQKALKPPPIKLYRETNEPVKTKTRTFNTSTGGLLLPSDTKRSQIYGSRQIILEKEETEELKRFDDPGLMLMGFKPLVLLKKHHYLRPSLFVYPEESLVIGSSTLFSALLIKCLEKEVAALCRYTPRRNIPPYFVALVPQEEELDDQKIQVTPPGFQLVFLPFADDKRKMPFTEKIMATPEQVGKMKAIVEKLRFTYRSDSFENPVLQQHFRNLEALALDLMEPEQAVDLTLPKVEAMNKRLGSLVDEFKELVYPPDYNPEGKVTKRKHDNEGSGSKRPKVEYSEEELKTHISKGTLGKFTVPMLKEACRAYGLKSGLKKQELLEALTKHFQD
T1 sequence (P13010 whole entry): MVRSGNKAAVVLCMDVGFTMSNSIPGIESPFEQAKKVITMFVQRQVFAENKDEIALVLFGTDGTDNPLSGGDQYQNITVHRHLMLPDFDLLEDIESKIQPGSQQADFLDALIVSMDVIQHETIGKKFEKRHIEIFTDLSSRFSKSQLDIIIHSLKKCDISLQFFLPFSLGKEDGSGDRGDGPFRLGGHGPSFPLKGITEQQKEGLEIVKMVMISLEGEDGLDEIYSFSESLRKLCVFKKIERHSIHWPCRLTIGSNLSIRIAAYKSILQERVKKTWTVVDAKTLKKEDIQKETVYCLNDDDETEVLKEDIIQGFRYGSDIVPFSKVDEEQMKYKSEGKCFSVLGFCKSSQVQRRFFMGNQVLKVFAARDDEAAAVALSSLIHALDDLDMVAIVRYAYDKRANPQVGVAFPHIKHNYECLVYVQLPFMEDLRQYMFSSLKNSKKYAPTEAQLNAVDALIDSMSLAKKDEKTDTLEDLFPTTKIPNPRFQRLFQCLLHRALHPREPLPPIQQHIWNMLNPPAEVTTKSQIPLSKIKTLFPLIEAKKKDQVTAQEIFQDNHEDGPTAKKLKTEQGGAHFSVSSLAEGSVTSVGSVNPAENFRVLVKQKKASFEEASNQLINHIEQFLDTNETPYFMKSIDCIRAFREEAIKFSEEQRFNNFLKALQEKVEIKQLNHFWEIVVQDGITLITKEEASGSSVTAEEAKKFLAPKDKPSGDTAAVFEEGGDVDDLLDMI

Substance | binding of Ku (Ku complex) | ligation of DNA fragments in cell-free assay [1] | phosphorylation of p53 serine 15 [2] | radiation-enhanced illegitimate integration of plasmid (puromycin resistance) [3] | retarded bands in band-shift assay (Ku complex) | DNA end-joining (ligation) ([1]; Dbait added 30 min after the nuclear extract (data not shown)) | DNA end-joining (ligation of 32P-labeled linear DNA fragments) ([1]; Dbait added simultaneously with fragments, 100-fold molar excess) | DNA end-joining (ligation) ([1]; Dbait incubated with the extract for 30 min before addition of fragments) | radiation-enhanced integration of linear plasmid (neomycin resistance) ([3]; Hela, 2 μg Dbait added to transfection mix, 4×0.5 Gy)
Dbait8H: hairpin double strand DNA with a stem of 8-bp (DNA ACGCACGG; DNA, backbone not given here; hairpin, hexaethyleneglycol loop, 3-bp phosphorothioate at free blunt end) | dID NO:t bind Ku | largely unaffected | Neither the shortest Dbait8H (SEQ ID NO: 4) nor single strand Dbaut32ss (SEQ ID NO: 1) molecules were able to induced significant phosphorylation | not effective | – | – | – | – | –
Dbait16H: hairpin double strand DNA with a stem of 16-bp (DNA ACGCACGGGTGTTGGG; DNA, backbone not given here; hairpin DNA with hexaethyleneglycol loop, 3-bp phosphorothioate at free blunt end) | bound only one Ku dimer | inhibited the ligation as efficiently as Dbait32H | moderate phosphorylation | not effective | One retarded band | – | – | – | –
Dbait32H: hairpin double strand DNA with a stem of 32-bp, hexaethyleneglycol linker, phosphorothioate at the free blunt end (DNA ACGCACGGGTGTTGGGTCGTTTGTTCGGATCT; DNA, backbone not given here; hairpin, hexaethyleneglycol loop, 3-bp phosphorothioate at free blunt end) | – | – | highly phosphorylated | capable of inhibiting | two retarded band | no inhibition of the ligation | strongly inhibited | extent of inhibition was similar | abolished
Dbait32ss: 32-nt single strand DNA (SEQ ID NO: 1) (DNA ACGCACGGGTGTTGGGTCGTTTGTTCGGATCT; DNA, backbone not given here) | – | largely unaffected | Neither the shortest Dbait8H (SEQ ID NO: 4) nor single strand Dbaut32ss (SEQ ID NO: 1) molecules were able to induced significant phosphorylation | not effective | – | – | – | – | –
